# Values joined by “and” are separate entries in the source; they are usually repeats but may differ in a detail not shown here. Identical values can stand only once. Like-named read-outs stand apart in the source and are kept apart here.
# How the values were obtained:
# [1] = target: T1, TopBP1/mutp53(R273H) interaction (Homo sapiens, UniProt Q92547); test: Co-immunoprecipitation in MDA-MB468 cells, TopBP1/mutp53; type: cell-based; settings: 2.5 μM, 5 h
# T1 construct: endogenous in cells; host or cells: MDA-MB468
# Description: (§1) MDA-MB468 cells were lysed with TNN buffer (Liu et al. 2003). An aliquot of cell lysates was lysed with SDS lysis buffer and the rest of cell lysates were incubated with appropriate antibodies or beads at 4° C. for 3-12 h. Anti-FLAG beads (Sigma) were washed three times with TNN buffer. Immunoprecipitates were fractionated by SDS-PAGE and electro-transferred to Immobilon-P membrane (Millipore). Equal amount of protein loading was validated with Ponceau-S staining. The specific signals were detected by incubating with appropriate antibody. All primary antibodies were used at 1:1000 dilution and horseradish peroxidase (HRP)-conjugated secondary antibodies were used at 1:5000 dilution for immunoblotting. E2F1 (C-20 and KH-95), p53 (FL393), p63 (4A4 and H-129), p73 (H-79), p21 (C-19), Bax (N-20), GST (B-14), c-Myc (A14), Miz1 (H-190), Chk1 (G4), Actin (C-2) and GAPDH (6C5) antibodies were purchased from Santa Cruz. TopBP1 (mouse monoclonal) and Aid antibodies were purchased from BD Transduction Laboratories. TopBP1 (BL893, Rabbit polyclonal) antibody was purchased from Bethyl. Mouse monoclonal anti-phospho-γH2AX was purchased from Millipore. Phospho-Chk1 (Ser345) antibody was purchased from Cell signaling. FLAG (F7425) antibody was purchased from Sigma. Mouse monoclonal anti-p73 (IMG-246) was purchased from IMGENEX.
# [2] = tested on: primary leukemia cells from a patient with T cell acute lymphoblastic leukemia; test: Caspase 3/7 activation assay, primary leukemia cells; type: cell-based; settings: 2.5 μM, 7 hours
# Description: (§2) The apoptosis was measured by Caspase-Glo® 3/7 assay (Promega) following the manufacturer's protocol. The cells were plated in 6-well tissue culture dish (10^4 cells/well) (BD Falcon) in respective media. […] The blank reactions were prepared per direction. Equal volume of Caspase-Glo® 3/7 reagents were applied to each well. A luminometer (Sirius) was used to quantitate luminescence.
# rats = settings: cited from earlier work
# BT549 xenografts = test: BT549 xenograft formation; type: in vivo, nude mice
# Description: Twenty nude mice were injected s.c. with BT549 cells. […] Six out of eight DMSO-treated mice developed xenografts later.
# [3] = tested on: mice (intestinal tissues); test: Tolerability and acute toxicity in proliferating tissues after i.p. injection; type: in vivo
# [4] = tested on: NCI-H520 lung cancer cells; test: Caspase 3/7 activation assay, NCI-H520; type: cell-based; settings: 2.5 or 5 μM, 16 hours
# Description: as §2
# BT549 = settings: NCI-DTP database; cited from earlier work
# [5] = tested on: McA-RH7777 rat hepatoma cells; test: Apoptosis in rat tumor cells; type: cell-based
# Description: as §2
# NCI-60 cancer cell lines = settings: NCI-DTP data, cited from earlier work
# TopBP1/Miz1 interaction = target: T2, TopBP1/Miz1 interaction (Homo sapiens, UniProt Q92547); test: Co-immunoprecipitation in BT549 cells, TopBP1/Miz1; type: cell-based; settings: 2.5 μM, 3 h
# T2 construct: expressed in transfected cells; host or cells: BT549
# HEK293 cells = test: Caspase-Glo 3/7 activity assay, HEK293; type: cell-based, human; settings: 2.5 μM overnight
# Description: as §2
# To prepare TopBP1 knockdown stable cell line, MDA-MB468 cells were infected with lentivirus expressing TopBP1 shRNA (Liu et al. 2011) as well as scramble shRNA, separately. The infected cells were grown for 48 h followed by selection with puromycin (2 μg/ml). After selection, the knockdown was confirmed by Western blotting before further experiments. Two different pLKO-shTopBP1 (#1 and #2) constructs (Open Biosystems, RHS4533-NM_007027) were used to deplete TopBP1 in MDA-MB468 cells. Additional two pSuper-shTopBP1 constructs (Liu et al. 2004) were used to knock down TopBP1 in HEK293 cells. Two pSuper-shE2F1 constructs were used to deplete E2F1: shE2F1#1 (described previously (Liu et al. 2004)), and shE2F1#2 (target sequence 5′-[…]-3′). The target sequence for pSuperior-shE2F1 is the same as pSuper-shE2F1#1. To deplete p63, shp63alpha pLKO.1-puro (from Addgene, 19120) was used. TP73 MISSION shRNA (shp73 pLKO.1-puro) was purchased from Sigma (TRCN00002722587).
# NCI-H23 = settings: NCI-DTP database; cited from earlier work
# MCF10A cells = test: MTS assay, MCF10A; type: cell-based, human; settings: co-treated with doxorubicin, Calcein AM 2.5 μM, 5 h
# Description: (§3) Then 50 μl of MTS reagent (CellTiter 96® AQueous One Solution Cell Proliferation Assay, Promega) was added to each well, covered from light and incubated for 1 h at 37.0 incubator to develop purple color. The samples were measured at 490 nm in a plate reader (BioTek Synergy HT) against a blank 48-well plate. Each assay was done in triplicate.
# TopBP1 oligomerization [6] = target: T3, TopBP1 oligomerization (Homo sapiens, UniProt Q92547); test: TopBP1 oligomerization in MDA-MB468 cells (co-IP of tagged TopBP1, DMP cross-linking); type: cell-based; settings: 2.5 μM, 5 h
# T3 construct: endogenous in cells; host or cells: MDA-MB468
# Description: as §1, with “IMGENEX. […]” for “IMGENEX.”
# TopBP1 oligomerization [7] = test: as above; type: cell-based, human; settings: 2.5 μM, 5 h
# Description: as §1, with “IMGENEX. […]” for “IMGENEX.”
# MDA-MB468 cells = test: MTS assay, MDA-MB468; type: cell-based, human; settings: 5 h
# Description: as §3
# T2 sequence (Q92547 whole entry): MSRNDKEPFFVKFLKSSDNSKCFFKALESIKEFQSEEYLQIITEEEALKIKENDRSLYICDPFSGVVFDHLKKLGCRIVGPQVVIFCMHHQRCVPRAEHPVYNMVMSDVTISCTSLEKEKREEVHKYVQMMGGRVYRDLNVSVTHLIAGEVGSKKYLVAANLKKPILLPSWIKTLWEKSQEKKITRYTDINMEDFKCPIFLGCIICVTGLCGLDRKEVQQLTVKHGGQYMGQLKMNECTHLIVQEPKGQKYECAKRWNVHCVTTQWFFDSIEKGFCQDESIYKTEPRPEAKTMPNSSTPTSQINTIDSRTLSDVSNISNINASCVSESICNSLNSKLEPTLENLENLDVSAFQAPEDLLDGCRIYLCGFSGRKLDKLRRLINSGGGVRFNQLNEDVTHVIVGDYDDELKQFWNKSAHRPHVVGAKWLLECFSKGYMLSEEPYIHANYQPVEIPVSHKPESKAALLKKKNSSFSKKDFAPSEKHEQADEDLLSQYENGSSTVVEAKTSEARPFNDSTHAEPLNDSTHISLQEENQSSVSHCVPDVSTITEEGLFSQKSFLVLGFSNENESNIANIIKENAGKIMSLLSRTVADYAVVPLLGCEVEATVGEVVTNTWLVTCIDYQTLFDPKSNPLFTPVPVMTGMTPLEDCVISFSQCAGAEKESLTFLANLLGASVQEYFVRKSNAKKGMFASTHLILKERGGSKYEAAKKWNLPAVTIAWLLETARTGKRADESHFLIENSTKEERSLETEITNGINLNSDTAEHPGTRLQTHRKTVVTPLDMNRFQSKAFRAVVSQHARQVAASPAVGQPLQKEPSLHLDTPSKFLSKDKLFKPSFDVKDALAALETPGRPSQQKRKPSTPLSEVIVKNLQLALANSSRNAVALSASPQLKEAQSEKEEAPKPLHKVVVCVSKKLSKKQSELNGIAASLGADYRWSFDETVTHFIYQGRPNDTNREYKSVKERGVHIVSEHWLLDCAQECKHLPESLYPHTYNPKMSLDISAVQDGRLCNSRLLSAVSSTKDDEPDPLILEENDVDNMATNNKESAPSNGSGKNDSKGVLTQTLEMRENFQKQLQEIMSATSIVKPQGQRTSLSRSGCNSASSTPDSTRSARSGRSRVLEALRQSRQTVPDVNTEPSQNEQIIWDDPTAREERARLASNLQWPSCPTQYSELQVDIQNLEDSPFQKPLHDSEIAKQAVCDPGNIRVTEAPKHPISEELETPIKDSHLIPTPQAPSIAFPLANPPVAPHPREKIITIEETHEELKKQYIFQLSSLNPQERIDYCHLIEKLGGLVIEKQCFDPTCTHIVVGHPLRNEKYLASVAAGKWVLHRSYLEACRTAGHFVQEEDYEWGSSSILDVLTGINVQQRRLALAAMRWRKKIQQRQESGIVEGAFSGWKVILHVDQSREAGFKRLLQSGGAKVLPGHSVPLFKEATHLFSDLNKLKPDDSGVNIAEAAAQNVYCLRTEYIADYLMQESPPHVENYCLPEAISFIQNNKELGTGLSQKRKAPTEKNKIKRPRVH
# T1 sequence (Q92547 whole entry, stated change not applied): as the sequence (Q92547 whole entry) above
# T3 sequence (Q92547 whole entry): as above
compound,measurement,setting,value
"CC(=O)OCOC(=O)CN(CC(=O)OCOC(C)=O)Cc1cc2c(cc1OC(C)=O)Oc1cc(OC(C)=O)c(CN(CC(=O)OCOC(C)=O)CC(=O)OCOC(C)=O)cc1C21OC(=O)c2ccccc21 [Calcein AM, Calcein AM (acetoxymethyl ester)]",TopBP1/mutp53 interaction at physiological levels,[1],inhibited
same,cell killing (caspase 3/7 activation),[2],active in killing
same,oral LD50,rats,14500 mg/kg
same,mice that developed tumors,BT549 xenografts; 20 mg/kg i.p. every three days for three doses,none of the eight
same,mice that developed tumors,BT549 xenografts; 40 mg/kg i.p. every three days for three doses,none of the four
same,apparent toxicity in injected mice,[3]; 40 mg/kg,did not manifest any apparent toxicity
same,Ki-67 staining in intestinal epithelium,"[3]; 40 mg/kg, 48 h after injection",did not decrease Ki-67 staining
same,apoptosis in intestinal epithelium,"[3]; 40 mg/kg, 48 h after injection",nor did it induce apoptosis
same,tolerability of i.p. injections,[3]; throughout the course of treatment,appeared to tolerate
same,apoptosis (caspase 3/7 activation),[4],induced apoptosis
same,GI50,BT549,< 400 nM and 270 nM
same,apoptosis,[5],induced apoptosis
same,GI50,NCI-60 cancer cell lines; read-out: average GI50 over all 60 cell lines,662 nM
same,GI50,NCI-60 cancer cell lines; read-out: highest GI50 of the 60 cell lines,11000 nM
same,GI50,NCI-60 cancer cell lines; read-out: lowest GI50 of the 60 cell lines,10 nM
same,interaction between TopBP1 and Miz1,TopBP1/Miz1 interaction,inhibited the interaction between TopBP1 and Miz1
same,apoptosis (caspase 3/7 activity),HEK293 cells,induced apoptosis
same,apoptosis (caspase 3/7 activity),HEK293 cells; TopBP1-depleted HEK293 cells,could not induce more apoptosis
same,GI50,NCI-H23,< 1000 nM
same,doxorubicin sensitivity (MTS),MCF10A cells,not
same,"endogenous TopBP1 oligomerization, DMP chemical crosslinking assay",TopBP1 oligomerization [6],blocked endogenous TopBP1 oligomerization
same,"TopBP1 oligomerization, differentially tagged TopBP1",TopBP1 oligomerization [7],inhibit TopBP1 oligomerization
same,doxorubicin sensitivity (MTS),"MDA-MB468 cells; TopBP1-depleted cells, 2.5 μM",failed to cast the same effect
same,doxorubicin sensitivity (MTS),"MDA-MB468 cells; co-treated with doxorubicin, Calcein AM 2.5 μM",greatly enhanced the doxorubicin sensitivity
same,proliferation (MTS),"MDA-MB468 cells; increasing concentrations, versus MCF10A",preferentially inhibited the proliferation
same,doxorubicin sensitivity (MTS),"MDA-MB468 cells; shScr control cells, 2.5 μM",sensitized

# Source: patent US9636323B2, “Method of treating cancer that overexpresses TopBP1” (Baylor College of Medicine, priority 2014, dated 2017)
